The values below come from PMC12337190, “A bacterial actin with high ATPase activity regulates the polymerization of a partner MreB isoform essential for Spiroplasma swimming motility” (The Journal of Biological Chemistry, 2025).

In one assay the target is T1, SpeMreB5 (Spiroplasma eriocheiris, UniProt A0A0H3XIQ3).
T1 construct: gene mreB5; full-length SpeMreB5, 6xHis tag, pCold-15b, E. coli BL21(DE3), codon-optimized
T1 sequence (A0A0H3XIQ3 1-350): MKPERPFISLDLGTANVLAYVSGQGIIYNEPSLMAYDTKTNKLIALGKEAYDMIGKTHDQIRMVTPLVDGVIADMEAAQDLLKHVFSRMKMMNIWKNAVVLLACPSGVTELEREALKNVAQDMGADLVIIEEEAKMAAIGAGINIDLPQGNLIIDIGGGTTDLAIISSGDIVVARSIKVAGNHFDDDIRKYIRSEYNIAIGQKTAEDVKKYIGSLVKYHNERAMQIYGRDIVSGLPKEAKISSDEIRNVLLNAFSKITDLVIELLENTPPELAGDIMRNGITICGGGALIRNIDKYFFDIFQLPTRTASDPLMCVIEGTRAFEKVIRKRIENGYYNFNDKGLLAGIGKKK
The assay can be described thus: liposome cosedimentation (loss of membrane binding with nucleotide). To be noted: 1 mM nucleotide, SpiroLipid liposomes, 200 mM KCl, 1 mM MgCl2, pH 7.5.

Another assay addresses T2, PrS-SpeMreB1 (Spiroplasma eriocheiris, UniProt A0A0H3XI00).
T2 construct: gene mreB1; full-length SpeMreB1; N-terminal 6xHis, two ProteinS (M. xanthus) solubilization tags, factor Xa site; C-terminal 6xHis; tags kept; 560 residues with tags; E. coli BL21(DE3), codon-optimized; monomeric gel filtration fraction
T2 sequence (A0A0H3XI00 1-346): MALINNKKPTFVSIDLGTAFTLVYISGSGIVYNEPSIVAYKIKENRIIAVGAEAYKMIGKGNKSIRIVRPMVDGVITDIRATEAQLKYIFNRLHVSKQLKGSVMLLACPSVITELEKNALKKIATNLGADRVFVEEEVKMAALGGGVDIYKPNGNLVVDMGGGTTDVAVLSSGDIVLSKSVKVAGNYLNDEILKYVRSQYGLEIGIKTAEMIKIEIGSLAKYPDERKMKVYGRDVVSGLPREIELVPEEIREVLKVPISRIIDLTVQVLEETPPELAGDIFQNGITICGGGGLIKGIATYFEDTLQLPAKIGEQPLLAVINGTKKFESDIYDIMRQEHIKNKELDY
Description: sedimentation assay of polymerization. It is filed as biochemical. The following applies: 2 mM ADP, 1 M NaCl, 2 mM MgCl2, pH 8.0, room temperature; polymerizes with nucleotide, not nucleotide-free.

Assay [1] deals with PrS-SpeMreB1 T164A (Spiroplasma eriocheiris). The assay can be described thus: sedimentation assay (ultracentrifugation); buffer S (20 mM Tris-HCl pH 8.0, 1 M NaCl, 200 mM L-arginine-HCl, 5 mM DTT, 2 mM MgCl2) with 2 mM ATP; 3 h at room temperature; 100,000 rpm, 23 °C, 90 min; critical concentration as x-intercept of the linear fit.
The target in assay [2] is PrS-SpeMreB1 WT (monomeric gel-filtration fraction) (Spiroplasma eriocheiris). The assay can be described thus: sedimentation assay (ultracentrifugation); buffer S with 2 mM AMPPNP; 3 h at room temperature; 100,000 rpm, 23 °C, 90 min; no linear fit possible (small pellet amounts).
The target is the same in assay [3]. Description: sedimentation assay (ultracentrifugation); buffer S with 2 mM ADP; 3 h at room temperature; 100,000 rpm, 23 °C, 90 min; critical concentration as x-intercept of the linear fit.
Assay [4] shares this target. The assay can be described thus: sedimentation assay (ultracentrifugation); buffer S (20 mM Tris-HCl pH 8.0, 1 M NaCl, 200 mM L-arginine-HCl, 5 mM DTT, 2 mM MgCl2) with 2 mM ATP; 3 h at room temperature; 100,000 rpm, 23 °C, 90 min; critical concentration as x-intercept of the linear fit.

With `Nc1ncnc2c1ncn2[C@@H]1O[C@H](COP(=O)(O)OP(=O)(O)O)[C@@H](O)[C@H]1O` [ADP], the “liposome cosedimentation (loss of membrane binding with nucleotide)” value at SpeMreB5 was “SpeMreB5 did not bind to the liposomes in the presence of nucleotides”. For the same compound, the “sedimentation assay of polymerization” value on PrS-SpeMreB1 is recorded as “PrS-SpeMreB1 was less polymerized in the presence of ADP”.
Regarding `Nc1ncnc2c1ncn2[C@@H]1O[C@H](COP(=O)(O)OP(=O)(O)NP(=O)(O)O)[C@@H](O)[C@H]1O` [AMPPNP], the “liposome cosedimentation (loss of membrane binding with nucleotide)” value on SpeMreB5 is “SpeMreB5 did not bind to the liposomes in the presence of nucleotides”.
Same read-out and setting: the value for `Nc1ncnc2c1ncn2[C@@H]1O[C@H](COP(=O)(O)OP(=O)(O)OP(=O)(O)O)[C@@H](O)[C@H]1O` [ATP] was “SpeMreB5 did not bind to the liposomes in the presence of nucleotides”.
Consider PrS-SpeMreB1 T164A (natural protein), for which, in assay [1], the critical concentration (CC) for polymerization was 3 µM.
For “PrS-SpeMreB1 WT (monomeric gel-filtration fraction) (natural protein)”, the critical concentration (CC) for polymerization in assay [2] is greater than 7 µM; in assay [3] it was 3.8 µM; in assay [4] it was 0.41 µM.
